PMC7486280 (Journal of medicinal chemistry, 2020)
Each block holds one molecule with its values, some of them ahead of it. Where a SMILES comes first, the peptide text is derived from it. [ ]: non-standard residue; d: D form. The star is where a group is joined. ξ: configuration not given here. ξαMeP = CC1(C(=O)O)CCCN1; PhAc = O=C(Cc1ccccc1)*

Tests used:
NTMT1 [1] = biological target: T1, NTMT1 (Homo sapiens, UniProt Q9BV86); experiment: Inhibition mechanism, SAHH-coupled fluorescence assay; assay type: biochemical
T1 sequence (Q9BV86 1-223): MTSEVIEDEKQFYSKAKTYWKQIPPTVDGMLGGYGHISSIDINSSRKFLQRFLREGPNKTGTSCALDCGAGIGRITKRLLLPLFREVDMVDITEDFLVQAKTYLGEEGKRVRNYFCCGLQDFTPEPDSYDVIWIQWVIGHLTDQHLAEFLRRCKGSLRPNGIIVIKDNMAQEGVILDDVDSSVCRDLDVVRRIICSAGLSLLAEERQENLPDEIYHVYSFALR

HCT116 cells = experiment: Cell permeability evaluation by MALDI-MS; assay type: cell-based; conditions: 100 μM, listed as BM30
[2] = tested on: panel of 41 MTases (NTMT1/2, PKMTs, PRMTs, DNMTs); experiment: Selectivity panel of 41 MTases; assay type: biochemical
PRMT1 = PRMT1 (Homo sapiens, UniProt Q99873); experiment: SAH hydrolase-coupled fluorescence selectivity assay, PRMT1; assay type: biochemical
Sequence of PRMT1 (Q99873 whole entry, species assumed): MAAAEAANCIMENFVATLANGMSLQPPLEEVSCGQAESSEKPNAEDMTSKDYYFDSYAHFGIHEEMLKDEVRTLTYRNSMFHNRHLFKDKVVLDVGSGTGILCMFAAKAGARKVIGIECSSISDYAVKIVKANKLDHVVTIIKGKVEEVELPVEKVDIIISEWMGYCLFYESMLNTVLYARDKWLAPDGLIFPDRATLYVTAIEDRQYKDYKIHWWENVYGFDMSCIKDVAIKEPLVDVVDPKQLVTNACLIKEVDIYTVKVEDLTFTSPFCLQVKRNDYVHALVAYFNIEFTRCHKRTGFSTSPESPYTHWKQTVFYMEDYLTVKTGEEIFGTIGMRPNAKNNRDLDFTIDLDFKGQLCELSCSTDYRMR

NTMT1 [3] = biological target: T1, NTMT1; experiment: SAH hydrolase; assay type: biochemical; conditions: for fold loss in inhibition compared to 6 (BM30): IC50 ratio vs BM30; for inhibitory activity for NTMT1 (in words): up to 100 μM
G9a = biological target: T2, G9a (Homo sapiens, UniProt Q96KQ7); experiment: SAH hydrolase-coupled fluorescence selectivity assay, G9a; assay type: biochemical
T2 sequence (Q96KQ7 1-1210): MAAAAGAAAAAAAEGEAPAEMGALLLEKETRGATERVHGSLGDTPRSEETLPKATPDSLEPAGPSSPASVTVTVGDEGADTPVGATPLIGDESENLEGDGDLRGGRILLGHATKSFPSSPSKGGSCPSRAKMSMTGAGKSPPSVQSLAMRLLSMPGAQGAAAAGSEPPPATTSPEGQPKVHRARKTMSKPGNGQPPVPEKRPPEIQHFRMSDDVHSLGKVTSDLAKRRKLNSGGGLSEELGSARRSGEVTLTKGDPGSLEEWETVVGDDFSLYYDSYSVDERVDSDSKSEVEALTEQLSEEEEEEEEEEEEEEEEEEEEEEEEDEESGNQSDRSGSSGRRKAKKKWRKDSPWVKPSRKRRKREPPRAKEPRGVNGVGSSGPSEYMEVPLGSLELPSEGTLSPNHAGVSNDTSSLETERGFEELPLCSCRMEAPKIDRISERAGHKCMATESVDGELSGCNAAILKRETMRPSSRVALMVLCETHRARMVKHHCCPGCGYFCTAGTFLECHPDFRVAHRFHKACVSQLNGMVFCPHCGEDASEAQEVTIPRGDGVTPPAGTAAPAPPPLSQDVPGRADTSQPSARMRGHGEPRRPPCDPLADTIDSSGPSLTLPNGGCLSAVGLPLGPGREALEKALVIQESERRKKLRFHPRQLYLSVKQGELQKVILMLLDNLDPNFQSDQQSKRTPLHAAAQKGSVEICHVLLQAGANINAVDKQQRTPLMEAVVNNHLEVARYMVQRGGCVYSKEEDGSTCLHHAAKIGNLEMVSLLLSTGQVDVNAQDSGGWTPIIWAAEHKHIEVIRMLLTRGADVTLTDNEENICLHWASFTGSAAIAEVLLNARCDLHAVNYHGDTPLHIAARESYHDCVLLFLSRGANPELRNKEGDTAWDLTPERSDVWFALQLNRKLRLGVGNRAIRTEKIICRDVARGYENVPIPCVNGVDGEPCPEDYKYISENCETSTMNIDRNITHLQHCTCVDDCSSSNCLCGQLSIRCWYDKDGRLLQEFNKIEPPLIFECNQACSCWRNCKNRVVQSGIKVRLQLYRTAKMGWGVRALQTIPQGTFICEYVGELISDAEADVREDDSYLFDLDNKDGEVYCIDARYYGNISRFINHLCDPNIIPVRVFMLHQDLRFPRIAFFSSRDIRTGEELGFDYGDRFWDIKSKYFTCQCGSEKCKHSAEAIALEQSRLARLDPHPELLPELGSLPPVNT

NTMT1 [4] = biological target: T1, NTMT1; conditions: read-out: Kd for NTMT1; peptide substrate; cited from earlier work

Molecule: N=C(N)NCCC[C@H](NC(=O)[C@H](CCCCN)NC(=O)[C@@H]1CCCN1C(=O)Cc1ccc(O)cc1)C(N)=O [Compound 6]
inhibition pattern with respect to peptide substrate RCC1-6 (SPKRIA) (NTMT1 [1]; varying RCC1-6, fixed SAM): competitive | inhibition pattern with respect to cofactor SAM (NTMT1 [1]; varying SAM, fixed RCC1-6): noncompetitive | cellular level / penetration by MS detection (HCT116 cells): did not display any | inhibition of NTMT1 versus NTMT2 in the panel ([2]; 100 μM): comparable inhibition against both NTMT1 and NTMT2 | inhibition against the remaining 39 MTases ([2]; 100 μM, duplicates): very marginal inhibition | selectivity for NTMT1/2 over other MTases of the panel ([2]; compared to PKMTs, PRMTs and DNMTs): over 100 fold | IC50 (PRMT1): > 100000 nM | fold increased activity compared to 5 (NTMT1 [3]; IC50 ratio vs compound 5): approximately 7 fold

fold loss in inhibition compared to 6 (BM30) (NTMT1 [3]): 5 fold
Molecule: N=C(N)NCCC[C@H](NC(=O)[C@H](CCCCN)NC(=O)[C@@H]1CCCN1C(=O)CCc1ccc(O)cc1)C(N)=O [Compound 10]

fold loss in inhibition compared to parent compound 7 (NTMT1 [3]; IC50 ratio vs compound 7): 3 fold
Molecule: N=C(N)NCCC[C@H](NC(=O)[C@H](CCCCN)NC(=O)[C@@H]1CCCN1C(=O)CCc1ccc(N)cc1)C(N)=O [Compound 11]

inhibitory activity for NTMT1 (in words) (NTMT1 [3]): did not show any inhibitory activity
Molecule: N=C(N)NCCC[C@H](NC(=O)[C@H](CCCCN)NC(=O)[C@@H]1CCCN1CCc1ccc(O)cc1)C(N)=O [Compound 12]

inhibitory activity for NTMT1 (in words) (NTMT1 [3]): completely lost the inhibitory activity
Molecule: CC1(C(=O)N[C@@H](CCCCN)C(=O)N[C@@H](CCCNC(=N)N)C(N)=O)CCCN1C(=O)Cc1ccccc1 (stereo partly drawn) [Compound 13] (PhAc-[ξαMeP]-Lys-Arg-NH2)

inhibitory activity for NTMT1 (in words) (NTMT1 [3]): did not exhibit any inhibitory activity
Molecule: N=C(N)NCCC[C@H](NC(=O)[C@H](CCCCN)NC(=O)c1cccc(NC(=O)Cc2ccc(O)cc2)c1)C(N)=O [Compound 14]

inhibitory activity for NTMT1 (in words) (NTMT1 [3]): did not exhibit any inhibitory activity
Molecule: N=C(N)NCCC[C@H](NC(=O)[C@H](CCCCN)NC(=O)c1ccccc1NC(=O)Cc1ccc(O)cc1)C(N)=O [Compound 15]

Molecule: NCCCC[C@H](NC(=O)[C@H](CCCCN)NC(=O)[C@@H]1CCCN1C(=O)Cc1ccc(O)cc1)C(N)=O [Compound 17]
inhibitory activity for NTMT1 (in words) (NTMT1 [3]): negligible difference in inhibition compared to BM30

fold loss in inhibition compared to 6 (BM30) (NTMT1 [3]): 5 fold
Molecule: C[C@@H](O)[C@H](NC(=O)[C@H](CCCCN)NC(=O)[C@@H]1CCCN1C(=O)Cc1ccc(O)cc1)C(N)=O [Compound 18]

fold loss in inhibition compared to 6 (BM30) (NTMT1 [3]): 5 fold
Molecule: C[C@H](NC(=O)[C@H](CCCCN)NC(=O)[C@@H]1CCCN1C(=O)Cc1ccc(O)cc1)C(N)=O [Compound 19]

fold loss in inhibition compared to 6 (BM30) (NTMT1 [3]): ~14 fold
Molecule: NCCCC[C@H](NC(=O)[C@@H]1CCCN1C(=O)Cc1ccc(O)cc1)C(=O)NCC(N)=O [Compound 20]

fold loss in inhibition compared to 6 (BM30) (NTMT1 [3]): 18 fold
Molecule: NCCCC[C@H](NC(=O)[C@@H]1CCCN1C(=O)Cc1ccc(O)cc1)C(N)=O [Compound 21]

inhibition for G9a (in words) (G9a): exhibited inhibition
Molecule: N=C(N)NCCC[C@@H](NC(=O)[C@H](CCCCN)NC(=O)[C@@H]1CCCN1C(=O)Cc1ccc(O)cc1)C(N)=O [Compound 22]

Molecule: YPKRIA
Kd (NTMT1 [4]): 100 nM
